The values below come from patent US20250059220A1, “SUBSTITUTED BENZOTHIOPHENE DERIVATIVES AND METHODS OF USE THEREOF” (Merck Sharp & Dohme LLC, priority 2021, published 2025).

For test [1], the target named is human PTPN2 (1-387) (Homo sapiens (Human), UniProt P17706). The test is described as follows: Human PTPN2 Biochemical Assay. To be noted: DiFMUP substrate. In a few lines:
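Fluorogenic DiFMUP hydrolysis (1 h, room temperature, read ex 360/em 460 nm) after 30 min compound preincubation with PTPN2 residues 1-387, in 50 mM Tris pH 7.4, 150 mM NaCl, 0.01% Tween20, 0.5 mM DTT. Effects scaled between buffer and enzyme controls, 4-parameter fit gives EC50.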

Test [2] deals with human PTPN1 (1-435) (Homo sapiens (Human), UniProt P18031). Nature of the test: Human PTPN1 Biochemical Assay. The note with it: DiFMUP substrate, read-out: PTP1B IC50. In a few lines:
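Read-out is DiFMUP hydrolysis fluorescence (360 nm excitation, 460 nm emission) after 1 h at room temperature, following 30 min enzyme–compound preincubation.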

SMILES strings stand for the structures.

Chain of human PTPN1 (1-435) (P18031 whole entry): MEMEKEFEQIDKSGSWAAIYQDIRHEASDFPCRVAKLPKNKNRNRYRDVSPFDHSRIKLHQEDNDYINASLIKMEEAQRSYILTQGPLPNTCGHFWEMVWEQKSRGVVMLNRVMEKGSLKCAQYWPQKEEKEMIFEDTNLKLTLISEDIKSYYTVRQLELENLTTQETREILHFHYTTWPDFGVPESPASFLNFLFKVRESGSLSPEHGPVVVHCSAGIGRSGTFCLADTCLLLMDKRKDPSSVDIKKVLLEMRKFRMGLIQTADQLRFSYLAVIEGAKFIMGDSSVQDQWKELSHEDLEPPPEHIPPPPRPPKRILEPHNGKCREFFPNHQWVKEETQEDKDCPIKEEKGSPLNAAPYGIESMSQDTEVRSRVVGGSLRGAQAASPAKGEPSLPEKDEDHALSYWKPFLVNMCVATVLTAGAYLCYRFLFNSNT
Chain of human PTPN2 (1-387) (P17706 other isoform, or with tags, fused parts or gaps): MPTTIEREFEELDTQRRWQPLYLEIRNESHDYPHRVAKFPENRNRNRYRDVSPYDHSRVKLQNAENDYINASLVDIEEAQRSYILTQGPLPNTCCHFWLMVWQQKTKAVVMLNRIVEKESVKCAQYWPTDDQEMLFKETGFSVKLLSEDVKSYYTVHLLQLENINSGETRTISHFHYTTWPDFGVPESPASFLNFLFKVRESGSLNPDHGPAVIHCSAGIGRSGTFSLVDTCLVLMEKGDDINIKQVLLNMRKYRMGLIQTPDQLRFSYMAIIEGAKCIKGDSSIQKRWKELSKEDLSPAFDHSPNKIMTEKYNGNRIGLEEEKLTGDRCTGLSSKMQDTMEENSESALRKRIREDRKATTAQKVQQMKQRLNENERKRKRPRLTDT

The IC50 is the concentration that inhibits the measured activity by half. In the case of `CC(CC1C=Nc2ccc(F)cc21)NC(=O)c1ccc2sc(C(F)(F)P(=O)(O)O)c(Br)c2c1` (stereo not shown) [Compound 151], the IC50 in test [1] worked out at 5.98 µM; in test [2], 2.74 µM.
As for `COCCCNC(=O)c1ccc2sc(C(F)(F)P(=O)(O)O)c(Br)c2c1` [Compound 125], the IC50 in test [1] worked out at 6.52 µM; in test [2], 5.23 µM.
In the same order, the values of `O=C(NC(c1cccnc1)C(F)(F)F)c1ccc2sc(C(F)(F)P(=O)(O)O)c(Br)c2c1` (single isomer, unassigned) [Compound 222b, (R or S)-((3-bromo-5-((2,2,2-trifluoro-1-(pyridin-3-yl)ethyl)carbamoyl)benzo[b]thiophen-2-yl)difluoromethyl)phosphonic acid] are 0.771 µM and 0.707 µM.
In the same order, the values of `Cn1cc(CCNC(=O)c2ccc3sc(C(F)(F)P(=O)(O)O)c(Br)c3c2)c2ccccc21` [Compound 155] are 2.16 µM and 2.38 µM.
In the case of `NC(=O)c1cc(OCc2ccc(-c3nccs3)cc2)c2sc(C(F)(F)P(=O)(O)O)c(Br)c2c1` [Compound 354], the IC50 in test [1] was found to be 0.0096 µM; in test [2], 0.0697 µM.
For the molecule `Cn1cnc(CNC(=O)c2ccc3sc(C(F)(F)P(=O)(O)O)c(Br)c3c2)c1` [Compound 178], the IC50 in test [1] was determined as 5.82 µM; in test [2] it was 10.8 µM.
In the same order, the values of `NC(=O)c1cc(-c2cc[nH]n2)c2sc(C(F)(F)P(=O)(O)O)c(Br)c2c1` [Compound 415, ((3-bromo-5-carbamoyl-7-(1H-pyrazol-3-yl)benzo[b]thiophen-2-yl)difluoromethyl)phosphonic acid] are 3.84 µM and 3.93 µM.
In the same order, the values of `O=C(NC1CCC(F)(F)C1)c1ccc2sc(C(F)(F)P(=O)(O)O)c(Br)c2c1` (stereo not shown) [Compound 41] are 3.23 µM and 2.23 µM.
Take `Nc1cc(OCCCC(F)(F)F)c2sc(C(F)(F)P(=O)(O)O)c(Br)c2c1` [Compound 259, ((5-amino-3-bromo-7-(4,4,4-trifluorobutoxy)benzo[b]thiophen-2-yl)difluoromethyl)phosphonic acid]: the IC50 in test [1] is 0.338 µM; in test [2] it was 0.18 µM.
In the same order, the values of `Cc1nn(C)cc1CNC(=O)c1ccc2sc(C(F)(F)P(=O)(O)O)c(Br)c2c1` [Compound 50] are 7.49 µM and 6.39 µM.
As for `COc1ccc(COc2cc(C(N)=O)cc3c(Br)c(C(F)(F)P(=O)(O)O)sc23)cc1C(F)(F)F` [Compound 361], the results for the IC50 in test [1] and in test [2] were 0.0546 µM and 0.133 µM, respectively.
In the same order, the values of `NC(=O)c1cc(OCCOCC(F)(F)F)c2sc(C(F)(F)P(=O)(O)O)c(Br)c2c1` [Compound 237] are 0.441 µM and 0.544 µM.
For `NC(=O)c1cc(OCC23COC(CF)(C2)C3)c2sc(C(F)(F)P(=O)(O)O)c(Br)c2c1` [Compound 290] the same measures were 0.00974 µM and 0.011 µM.
In the same order, the values of `CC(C)(NC(=O)c1ccc2sc(C(F)(F)P(=O)(O)O)c(Br)c2c1)c1ncn(-c2ccccc2)n1` [Compound 70] are 8.75 µM and 9.21 µM.
Regarding `NC(=O)c1cc(OCC2CC3(C2)CC(F)(F)C3)c2sc(C(F)(F)P(=O)(O)O)c(Br)c2c1` [Compound 276], the 50% inhibitory concentration (IC50) in test [1] was 0.0273 µM; in test [2], 0.017 µM.
For `O=C(NCCn1nnc2ccccc21)c1ccc2sc(C(F)(F)P(=O)(O)O)c(Br)c2c1` [Compound 89] the same measures were 6.04 µM and 5.12 µM.
With `O=C(NCc1ncc(F)cn1)c1ccc2sc(C(F)(F)P(=O)(O)O)c(Br)c2c1` [Compound 184], the IC50 in test [1] is 7.34 µM; in test [2], 4.97 µM.
For `Cc1nn(C)c(C)c1CNC(=O)c1ccc2sc(C(F)(F)P(=O)(O)O)c(Br)c2c1` [Compound 124], the IC50 in test [1] was determined as 7.38 µM; in test [2], 6.12 µM.
In the same order, the values of `O=P(O)(O)C(F)(F)c1sc2c(OCC3CC3(F)F)cc(-c3cnn[nH]3)cc2c1Br` (stereo not shown) [Compound 368] are 0.00353 µM and 0.0031 µM.
Regarding `C[C@@H](NC(=O)c1ccc2sc(C(F)(F)P(=O)(O)O)c(Br)c2c1)c1ncc(F)cn1` [Compound 182], the IC50 in test [1] amounted to 5.08 µM; in test [2] it was 2.65 µM.
For `COCC(NC(=O)c1ccc2sc(C(F)(F)P(=O)(O)O)c(Br)c2c1)c1ccc(F)cc1` (stereo not shown) [Compound 112] the same measures were 2.91 µM and 3.68 µM.
For `O=C(Cc1cccnc1)Nc1ccc2sc(C(F)(F)P(=O)(O)O)c(Br)c2c1` [Compound 214], the IC50 is 4.33 µM in test [1] and 3.48 µM in test [2].
In the same order, the values of `NC(=O)c1cc(OCC2CC(C3CC3)C2)c2sc(C(F)(F)P(=O)(O)O)c(Br)c2c1` (stereo not shown) [Compound 295] are 0.0389 µM and 0.038 µM.
For the molecule `NC(=O)c1cc(OCC2CC2(F)F)c2sc(C(F)(F)P(=O)(O)O)c(Br)c2c1` (stereo not shown) [Compound 315], the IC50 in test [1] was 0.0218 µM; in test [2] it was 0.0234 µM.
For `CS(=O)(=O)NCCCOc1cc(C(N)=O)cc2c(Br)c(C(F)(F)P(=O)(O)O)sc12` [Compound 256] the same measures were 0.128 µM and 0.066 µM.
In the same order, the values of `NC(=O)c1cc(OC[C@H]2C[C@H](S(N)(=O)=O)C2)c2sc(C(F)(F)P(=O)(O)O)c(Br)c2c1` [Compound 381] are 0.0025 µM and 0.0025 µM.
For `NC(=O)c1cc(OCC[C@@H]2C[C@H]2C(F)(F)F)c2sc(C(F)(F)P(=O)(O)O)c(Br)c2c1` [Compound 282] the same measures were 0.168 µM and 0.071 µM.
In the case of `COc1ccc(NC(=O)c2ccc3sc(C(F)(F)P(=O)(O)O)c(Br)c3c2)cc1` [Compound 29], the IC50 in test [1] is 3.34 µM; in test [2] it was 2.49 µM.
Take `N#Cc1ccc2c(C#N)c(C(F)(F)P(=O)(O)O)sc2c1` [Compound 301, ((3,6-dicyanobenzo[b]thiophen-2-yl)difluoromethyl)phosphonic acid]: the IC50 in test [1] stood at 17.1 µM; in test [2], 12.9 µM.
For `O=C(NCc1cccnc1)c1ccc2sc(C(F)(F)P(=O)(O)O)c(Br)c2c1` [Compound 11] the same measures were 3.05 µM and 2.16 µM.
For `CC1CCS(=O)(=O)C1CCOc1cc(C(N)=O)cc2c(Br)c(C(F)(F)P(=O)(O)O)sc12` (stereo not shown) [Compound 392] the same measures were 0.171 µM and 0.153 µM.
In the case of `O=C(NCc1c[nH]cn1)c1ccc2sc(C(F)(F)P(=O)(O)O)c(Br)c2c1` [Compound 218], the IC50 amounted to 2.05 µM in test [1] and 2.9 µM in test [2].
For `C#Cc1cc(OCCCC(F)(F)F)c2sc(C(F)(F)P(=O)(O)O)c(Br)c2c1` [Compound 405, ((3-bromo-5-ethynyl-7-(4,4,4-trifluorobutoxy)benzo[b]thiophen-2-yl)difluoromethyl)phosphonic acid] the same measures were 0.288 µM and 0.29 µM.
On to `N#CCCNC(=O)c1cc(OCCCS(N)(=O)=O)c2sc(C(F)(F)P(=O)(O)O)c(Br)c2c1` [Compound 328], for which the results for the IC50 in test [1] and in test [2] were 0.00783 µM and 0.0079 µM, respectively.
For the molecule `COc1ccc2[nH]cc(CCNC(=O)c3ccc4sc(C(F)(F)P(=O)(O)O)c(Br)c4c3)c2c1` [Compound 154], the IC50 in test [1] was 2.77 µM; in test [2], 1.52 µM.
In the same order, the values of `CCCC(CO)Oc1cc(C(N)=O)cc2c(Br)c(C(F)(F)P(=O)(O)O)sc12` (stereo not shown) [Compound 447, ((3-bromo-5-carbamoyl-7-((1-hydroxypentan-2-yl)oxy)benzo[b]thiophen-2-yl)difluoromethyl)phosphonic acid] are 0.5 µM and 0.231 µM.
As for `NC(=O)c1cc(OCCC2CC2(F)F)c2sc(C(F)(F)P(=O)(O)O)c(Br)c2c1` (stereo not shown) [Compound 286], the IC50 in test [1] was found to be 0.0769 µM; in test [2] it was 0.04 µM.
In the same order, the values of `O=C(NCc1cc[nH]n1)c1cc(OCCCC(F)(F)F)c2sc(C(F)(F)P(=O)(O)O)c(Br)c2c1` [Compound 201] are 0.00906 µM and 0.0109 µM.
In the same order, the values of `Cc1ncc(-c2cc(OCCCC(F)(F)F)c3sc(C(F)(F)P(=O)(O)O)c(Br)c3c2)[nH]1` [Compound 452, ((3-bromo-5-(2-methyl-1H-imidazol-5-yl)-7-(4,4,4-trifluorobutoxy)benzo[b]thiophen-2-yl)difluoromethyl)phosphonic acid] are 0.0639 µM and 0.0719 µM.
As for `CN(C(=O)c1ccc2sc(C(F)(F)P(=O)(O)O)c(Br)c2c1)c1cccc(Oc2ccccc2)c1` [Compound 20], the IC50 in test [1] is 6.14 µM; in test [2] it was 4.44 µM.
Regarding `O=P(O)(O)C(F)(F)c1sc2c(OCC3CC3(F)F)cc(-c3cnn[nH]3)cc2c1Br` (stereo not shown) [Compound 367], the values for the IC50 in test [1] and in test [2] were 0.0122 µM and 0.0141 µM, respectively.
For `O=C(NC1CC(F)(F)C1)c1ccc2sc(C(F)(F)P(=O)(O)O)c(Br)c2c1` [Compound 27], the half-inhibitory concentration (IC50) in test [1] was determined as 3.23 µM; in test [2], 2.19 µM.
In the same order, the values of `NC(=O)c1cc(OCc2cc(F)cc(C(F)(F)F)c2)c2sc(C(F)(F)P(=O)(O)O)c(Br)c2c1` [Compound 247] are 0.0544 µM and 0.0942 µM.
As for `CS(=O)(=O)CCCCOc1cc(C(N)=O)cc2c(Br)c(C(F)(F)P(=O)(O)O)sc12` [Compound 318], the IC50 stood at 0.0348 µM in test [1] and 0.0526 µM in test [2].
As to `O=C(NCC(F)(F)F)c1ccc2sc(C(F)(F)P(=O)(O)O)c(Br)c2c1` [Compound 49], the 50% inhibitory concentration (IC50) amounted to 5.09 µM in test [1] and 4.15 µM in test [2].
In the same order, the values of `O=C(NC(CO)c1ccccn1)c1ccc2sc(C(F)(F)P(=O)(O)O)c(Br)c2c1` (stereo not shown) [Compound 192] are 7.98 µM and 4.59 µM.
In the case of `N#CCCCCOc1cc(C(N)=O)cc2c(Br)c(C(F)(F)P(=O)(O)O)sc12` [Compound 241], the IC50 in test [1] is 0.0505 µM; in test [2], 0.0618 µM.
